Laboratory results from patent publication US12065443B2, “Compounds and pharmaceutical compositions thereof for the treatment of diseases” (priority 2017, dated 2024).
Where two headings read alike, the source gives them in different places.

Tests used:
Assay in all cases: biochemical
SIK3 [1] = biological target: T1, SIK3 (Homo sapiens, UniProt Q9Y2K2); conditions: ADP-Glo SIK kinase assay
T1 construct: purchased SignalChem S12-11G-100
Method: (§1) The ADP-Glo™ kinase assay is a luminescent technology assay which measures the ADP formed from a kinase reaction. […] In a second step the kinase reactions are terminated and all the remaining ATP is depleted. In a final step the ADP is converted into ATP and this newly synthesized ATP is measured by using a luciferase/luciferin reaction. The generated light is measured using an Envision plate reader, wherein the luminescent signal obtained positively correlates with the kinase activity.
(§2) 1% DMSO and 10 μM staurosporine final concentrations are used as negative and positive controls.
(§3) 2 μL enzyme-substrate mixture is added to the assay plates.
(§4) The reaction is started by adding 2 μL diluted ATP on the assay plates. Plates are centrifuged for a few seconds at 1000 rpm and gently shaken for 2 min followed by an incubation at RT for 120 min.
(§5) The reactions are stopped and the unconsumed ATP is depleted by adding 5 μL ADP-Glo Reagent (Promega, Cat #V912B) to the reaction. The plates are centrifuged for a few seconds at 1000 rpm and incubated at RT for 40 min (ATP depletion).
(§6) The ADP is converted to ATP and luciferase and luciferin is introduced to detect ATP by adding 10 μL Kinase Detection Reagent (Promega, Cat #V913B+V914B) to the reaction. The plates are centrifuged for a few seconds at 1000 rpm and incubated at RT for 30 min (ADP detection).
(§7) Luminescence is measured on an Envision plate reader (PerkinElmer Inc.).

SIK1 [2] = biological target: T2, SIK1 (Homo sapiens, UniProt P57059); conditions: ADP-Glo SIK kinase assay
T2 construct: purchased Carna Biosciences 02-131
Method: as §1, §2, §3, §4, §5, §6, §7

SIK2 [3] = biological target: T3, SIK2 (Homo sapiens, UniProt Q9H0K1); conditions: ADP-Glo SIK kinase assay
T3 construct: purchased ThermoFisher Scientific PV4792
Method: as §1, §2, §3, §4, §5, §6, §7

SIK3 [4] = biological target: T1, SIK3
Method in brief: (§8)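 Radiometric assay: SIK1, SIK2 or SIK3 phosphorylates AMARA peptide using unlabelled plus [^33P]-γ-ATP, reaction started by ATP addition. Stopped with 150 mM phosphoric acid, filter-harvested and washed; incorporated ^33P counted by scintillation. Controls: 1% DMSO and 10 μM staurosporine final.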

SIK1 [5] = biological target: T2, SIK1; conditions: 33P radioactive SIK kinase assay, AMARA peptide, 10 μM ATP; read-out: SIK1 IC50
Method in brief: as §8

SIK2 [6] = biological target: T3, SIK2; conditions: 33P radioactive SIK kinase assay, AMARA peptide, 10 μM ATP
Method in brief: as §8

T3 sequence (Q9H0K1 whole entry): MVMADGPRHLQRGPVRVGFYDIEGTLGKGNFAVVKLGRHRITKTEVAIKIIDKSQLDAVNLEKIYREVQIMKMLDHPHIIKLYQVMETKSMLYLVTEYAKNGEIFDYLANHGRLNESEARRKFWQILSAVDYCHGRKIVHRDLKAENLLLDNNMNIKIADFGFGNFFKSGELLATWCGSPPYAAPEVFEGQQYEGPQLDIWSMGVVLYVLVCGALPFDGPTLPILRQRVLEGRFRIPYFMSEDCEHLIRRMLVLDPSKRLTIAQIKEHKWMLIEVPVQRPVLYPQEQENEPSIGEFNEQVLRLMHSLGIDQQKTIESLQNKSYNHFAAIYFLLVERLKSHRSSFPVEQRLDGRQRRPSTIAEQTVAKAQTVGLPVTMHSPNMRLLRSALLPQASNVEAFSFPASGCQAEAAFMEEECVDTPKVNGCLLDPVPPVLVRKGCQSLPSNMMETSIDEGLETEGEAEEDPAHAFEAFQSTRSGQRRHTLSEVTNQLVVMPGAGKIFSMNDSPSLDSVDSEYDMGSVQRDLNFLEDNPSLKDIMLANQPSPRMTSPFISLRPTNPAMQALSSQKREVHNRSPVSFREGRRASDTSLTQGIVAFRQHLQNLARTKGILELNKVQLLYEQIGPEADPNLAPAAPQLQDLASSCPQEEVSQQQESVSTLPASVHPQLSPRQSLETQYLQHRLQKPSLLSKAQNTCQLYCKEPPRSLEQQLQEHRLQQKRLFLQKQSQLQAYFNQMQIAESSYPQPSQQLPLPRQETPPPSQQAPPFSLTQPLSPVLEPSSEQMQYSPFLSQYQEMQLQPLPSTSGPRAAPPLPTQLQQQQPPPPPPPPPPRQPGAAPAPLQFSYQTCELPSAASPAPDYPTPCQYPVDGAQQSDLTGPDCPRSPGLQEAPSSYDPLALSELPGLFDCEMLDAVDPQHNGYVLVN
T2 sequence (P57059 whole entry): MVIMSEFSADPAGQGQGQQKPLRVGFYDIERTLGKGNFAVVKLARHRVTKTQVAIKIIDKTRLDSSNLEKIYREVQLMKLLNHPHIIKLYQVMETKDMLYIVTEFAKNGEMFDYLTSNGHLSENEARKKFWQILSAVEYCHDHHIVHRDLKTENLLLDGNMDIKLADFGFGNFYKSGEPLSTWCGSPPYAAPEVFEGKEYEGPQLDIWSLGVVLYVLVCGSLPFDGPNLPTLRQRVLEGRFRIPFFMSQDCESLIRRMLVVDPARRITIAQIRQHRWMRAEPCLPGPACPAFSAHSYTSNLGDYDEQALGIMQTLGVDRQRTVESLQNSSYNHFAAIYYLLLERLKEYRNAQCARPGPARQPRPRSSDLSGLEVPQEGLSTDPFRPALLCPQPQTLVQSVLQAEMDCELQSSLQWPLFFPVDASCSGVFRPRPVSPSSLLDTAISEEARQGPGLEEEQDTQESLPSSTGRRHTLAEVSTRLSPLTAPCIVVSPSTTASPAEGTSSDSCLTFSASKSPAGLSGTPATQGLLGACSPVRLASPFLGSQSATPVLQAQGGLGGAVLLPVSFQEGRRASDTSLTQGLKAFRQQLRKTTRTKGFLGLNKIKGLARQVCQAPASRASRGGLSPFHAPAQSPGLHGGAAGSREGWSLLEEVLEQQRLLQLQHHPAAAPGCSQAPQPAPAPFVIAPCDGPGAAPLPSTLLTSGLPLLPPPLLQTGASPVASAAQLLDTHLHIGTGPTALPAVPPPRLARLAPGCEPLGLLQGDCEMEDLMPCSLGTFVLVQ
T1 sequence (Q9Y2K2 whole entry): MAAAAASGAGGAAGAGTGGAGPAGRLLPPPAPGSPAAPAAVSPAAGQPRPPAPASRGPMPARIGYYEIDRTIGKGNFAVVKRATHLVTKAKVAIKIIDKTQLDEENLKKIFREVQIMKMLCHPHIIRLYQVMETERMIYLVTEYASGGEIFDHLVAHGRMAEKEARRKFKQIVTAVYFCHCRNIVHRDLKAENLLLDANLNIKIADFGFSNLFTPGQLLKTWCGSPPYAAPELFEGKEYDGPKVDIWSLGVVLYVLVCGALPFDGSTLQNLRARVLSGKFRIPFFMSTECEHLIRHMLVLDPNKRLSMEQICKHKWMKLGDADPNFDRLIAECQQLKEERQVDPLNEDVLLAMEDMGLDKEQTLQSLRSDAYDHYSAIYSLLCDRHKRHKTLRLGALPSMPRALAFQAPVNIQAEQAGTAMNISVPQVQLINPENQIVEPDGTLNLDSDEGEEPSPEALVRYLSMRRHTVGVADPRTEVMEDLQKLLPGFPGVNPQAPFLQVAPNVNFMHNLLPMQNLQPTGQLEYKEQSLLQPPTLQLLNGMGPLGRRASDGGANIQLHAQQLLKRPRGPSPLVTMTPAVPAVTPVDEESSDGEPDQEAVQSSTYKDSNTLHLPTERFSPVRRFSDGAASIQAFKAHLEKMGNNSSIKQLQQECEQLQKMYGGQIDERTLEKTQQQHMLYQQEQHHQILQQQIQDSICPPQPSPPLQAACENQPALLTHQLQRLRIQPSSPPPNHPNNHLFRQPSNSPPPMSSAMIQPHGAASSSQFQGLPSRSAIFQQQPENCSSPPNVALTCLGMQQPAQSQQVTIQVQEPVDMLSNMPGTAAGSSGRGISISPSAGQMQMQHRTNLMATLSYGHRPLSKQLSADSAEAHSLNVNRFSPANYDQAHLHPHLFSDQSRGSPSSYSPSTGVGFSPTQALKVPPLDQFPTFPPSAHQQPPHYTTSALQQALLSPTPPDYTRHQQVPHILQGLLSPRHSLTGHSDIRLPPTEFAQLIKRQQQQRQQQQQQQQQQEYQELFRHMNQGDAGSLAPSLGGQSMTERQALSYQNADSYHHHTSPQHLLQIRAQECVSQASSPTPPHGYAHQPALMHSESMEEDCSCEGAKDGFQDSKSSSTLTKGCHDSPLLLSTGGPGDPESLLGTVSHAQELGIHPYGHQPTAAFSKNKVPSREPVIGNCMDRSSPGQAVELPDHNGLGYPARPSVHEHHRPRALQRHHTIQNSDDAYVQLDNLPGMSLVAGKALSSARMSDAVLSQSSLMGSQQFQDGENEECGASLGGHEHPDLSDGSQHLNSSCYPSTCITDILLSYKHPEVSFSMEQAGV

| IC50 (SIK3 [1]) [nM] | IC50 (SIK1 [2]) [nM] | IC50 (SIK2 [3]) [nM] | IC50 (SIK3 [4]) [nM] | IC50 (SIK1 [5]) [nM] | IC50 (SIK2 [6]) [nM] | Compound |
| --- | --- | --- | --- | --- | --- | --- |
| 100 to 500 | 100 to 500 | 100 to 500 | > 500 | 100 to 500 | 100 to 500 | CCN1Cc2cc(-n3cnc4cc(-c5cnn(C)c5)ccc43)cc(NCCO)c2C1=O [Cpd 202, 2-ethyl-7-(2-hydroxyethylamino)-5-[5-(1-methylpyrazol-4-yl)benzimidazol-1-yl]isoindolin-1-one] |
| 10 to 100 | > 500 | > 500 | 100 to 500 | > 500 | > 500 | COc1cc(-c2cnc3cc(-c4cnccc4C#N)ccn23)cc(OC)c1C(=O)NCC(F)(F)F [Cpd 258] |
| 10 to 100 | > 500 | > 500 | 100 to 500 | > 500 | > 500 | COc1cc(-c2cnc3cc(-c4cnccc4C(N)=O)ccn23)cc(OC)c1C(=O)NCC(F)(F)F [Cpd 259, 3-[3-[3,5-dimethoxy-4-(2,2,2-trifluoroethyl-carbamoyl)phenyl]imidazo[1,2-a]pyridin-7-yl]pyridine-4-carboxamide] |
| 0.01 to 10 | 10 to 100 | 0.01 to 10 |  |  |  | COc1cc(-c2cnc3cc(-c4ccc(C(F)(F)F)nn4)ccn23)cc(OC(F)F)c1C(=O)NC1CC1 [compound 281, N-cyclopropyl-2-(difluoromethoxy)-6-methoxy-4-[7-[6-(trifluoromethyl)pyridazin-3-yl]imidazo[1,2-a]pyridin-3-yl]benzamide] |
| 0.01 to 10 | 0.01 to 10 | 0.01 to 10 |  |  |  | COc1cc(-c2cnc3cc(-c4ccc(C#N)nn4)ccn23)cc(OC(F)F)c1C(=O)NC1CC1 [compound 282, 4-[7-(6-cyanopyridazin-3-yl)imidazo[1,2-a]pyridin-3-yl]-N-cyclopropyl-2-(difluoromethoxy)-6-methoxy-benzamide] |
| 0.01 to 10 | 0.01 to 10 | 0.01 to 10 |  |  |  | COc1cc(-c2cnc3cc(-c4ccc(N(C)C)nn4)ccn23)cc(OC(F)F)c1C(=O)NC1CC1 [compound 283, N-cyclopropyl-2-(difluoromethoxy)-4-[7-[6-(dimethylamino)pyridazin-3-yl]imidazo[1,2-a]pyridin-3-yl]-6-methoxy-benzamide] |

The remaining lines, values behind:

| Compound | IC50 (SIK3 [1]) [nM] | IC50 (SIK1 [2]) [nM] | IC50 (SIK2 [3]) [nM] | IC50 (SIK3 [4]) [nM] | IC50 (SIK1 [5]) [nM] | IC50 (SIK2 [6]) [nM] |
| --- | --- | --- | --- | --- | --- | --- |
| CCN1Cc2cc(-n3cnc4cc(-c5cnn(C)c5)ccc43)cc(F)c2C1=O [Cpd 175, 2-ethyl-7-fluoro-5-[5-(1-methylpyrazol-4-yl)benzimidazol-1-yl]isoindolin-1-one] | 100 to 500 | > 500 | 100 to 500 | 100 to 500 | > 500 | 100 to 500 |
| COc1cc(-c2cnc3cc(-c4cnn(C)c4)ccn23)cc(OC)c1C(=O)N[C@H]1C[C@@H]1C(F)F [compound 172, N-[(1S,2S)-2-(difluoromethyl)cyclopropyl]-2,6-dimethoxy-4-[7-(1-methylpyrazol-4-yl)imidazo[1,2-a]pyridin-3-yl]benzamide] | 0.01 to 10 | 0.01 to 10 | 0.01 to 10 | 0.01 to 10 | 10 to 100 | 0.01 to 10 |
| CCN1Cc2cc(-c3cnc4cc(-c5cnn(C)c5)ccn34)cc(NCCO)c2C1=O [compound 201, 2-ethyl-7-(2-hydroxyethylainino)-5-[7-(1-methylpyrazol-4-yl)imidazo[1,2-a]pyridin-3-yl]isoindolin-1-one] | 10 to 100 | 100 to 500 | 10 to 100 | 100 to 500 | > 500 | 10 to 100 |
| COc1cc(-c2cnc3cc(-c4ccc(N5CCOCC5)nn4)ccn23)cc(OC(F)F)c1C(=O)NC1CC1 [compound 286, N-cyclopropyl-2-(difluoromethoxy)-6-methoxy-4-[7-(6-morpholino-pyridazin-3-yl)imidazo[1,2-a]pyridin-3-yl]benzamide] | 0.01 to 10 | 0.01 to 10 | 0.01 to 10 |  |  |  |
